Patent US20230280220A1, “Benzimidazole Derivative Compounds and Uses Thereof” (Pfizer Inc., priority 2019, published 2023)

Biological target: ITK enzyme (ITK FL, N-Flag and C-His tagged) (Homo sapiens (Human), UniProt Q08881)
Experiment: ITK enzyme assay (IL-2-inducible T-cell kinase activity)
Assay type: biochemical
Settings: geometric mean of count n
Method: IL-2-Inducible T-Cell Kinase (ITK) Activity, IC50 (nM)
ITK activity was determined by measuring the effect of a test compound in an ITK enzyme assay.
1.0 M HEPES Buffer pH 7.5 solution was prepared as follows: 238.3 g HEPES free acid (Sigma) and 800 mL of water were combined, and the mixture was stirred until complete dissolution. The pH was adjusted to 7.5 via titration with 5N NaOH and the volume adjusted to 1000 mL. The solution was filtered and sterilized.
ITK assay buffer was prepared as follows: 50 mL of HPLC-grade water was treated with 2 mL of 1.0 M HEPES Buffer, 500 μL of 2% Gelatin (Sigma), 1.0 mL of aqueous MgCl2 solution (1.0 M), and 1.0 mL of aqueous glutathione solution (0.5 M), and the solution was mixed. The solution was brought to 99 mL in a graduated cylinder by addition of water and sterilized through a 0.2 μm filter. 0.1 mL of Brij-35™ Surfact-Amps™ Detergent Solution (10% w/v aqueous solution, ThermoFisher) and 1.0 mL of ATP (Teknova, 100 mM) were added and the solution was mixed.
The resulting solution was stored on ice. 30 Minutes prior to use, the enzyme solution was removed from ice and equilibrated to RT by incubation in a RT water bath.
Preparation of 4×ITK substrate solution was as follows: 50 mL of ITK assay buffer was treated with 100 μL of BTK peptide (China Peptide Company, 2 mM stock solution in DMSO). The tube was capped, mixed by gently inverting the tube, and then stored on ice. 30 Minutes prior to use, the substrate solution was removed from ice and equilibrated to RT by incubation in a RT water bath.
At the time of assay, 7.5 μL of the 1.33×ITK enzyme solution was added to plate wells containing 0.1 μL of varying concentrations of test compound in DMSO. The plate was incubated 30 min at RT. The plate wells were each treated with 2.5 uL of the 4×ITK substrate solution and the plate was sealed (TopSeal™, Perkin Elmer). The plate was spun at 1000 rpm for 30 sec and then incubated for 60 min at RT. The seal was removed, and each well was treated with 10 μL of Stop/Detect Buffer (20 mM HEPES pH 7.5, 0.01% gelatin, 1 nM LANCE PT66 (Perkin Elmer), 16.5 μg/ml Surelight APC (Perkin Elmer), 10 mM EDTA, 250 mM NaCl). The plate was again covered and was spun at 1000 rpm for 30 seconds. The plate was allowed to incubate overnight at RT and in a closed carrier to reduce dehydration. The seal was removed, and the fluorescence was read with a plate reader with an excitation wavelength of […] and an emission wavelength of 615 nm.

ITK enzyme (ITK FL, N-Flag and C-His tagged), sequence (Q08881 whole entry): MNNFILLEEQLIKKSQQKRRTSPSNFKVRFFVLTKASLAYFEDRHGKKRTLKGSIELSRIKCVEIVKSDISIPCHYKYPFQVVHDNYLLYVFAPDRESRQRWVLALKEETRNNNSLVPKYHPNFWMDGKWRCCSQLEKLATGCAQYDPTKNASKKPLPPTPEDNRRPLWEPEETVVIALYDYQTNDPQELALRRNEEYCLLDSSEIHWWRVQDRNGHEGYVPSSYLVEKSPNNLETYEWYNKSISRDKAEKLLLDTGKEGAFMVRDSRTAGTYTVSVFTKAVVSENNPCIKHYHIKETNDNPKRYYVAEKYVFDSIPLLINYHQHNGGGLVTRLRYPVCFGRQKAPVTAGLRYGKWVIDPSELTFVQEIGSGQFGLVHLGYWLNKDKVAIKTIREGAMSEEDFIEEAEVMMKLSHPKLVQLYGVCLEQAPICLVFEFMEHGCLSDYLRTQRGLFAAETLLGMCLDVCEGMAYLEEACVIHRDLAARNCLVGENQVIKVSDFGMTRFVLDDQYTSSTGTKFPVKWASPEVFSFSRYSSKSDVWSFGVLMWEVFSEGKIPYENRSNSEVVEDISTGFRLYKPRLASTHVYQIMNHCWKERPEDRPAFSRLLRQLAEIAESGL

Row | SMILES | IC50
1 | CCN(C(=O)[C@H](C)N1CCOCC1)c1cc2nc(-c3n[nH]c4c3C[C@@H]3C[C@]3(C)C4)[nH]c2cc1C [Example 6, (S)—N-ethyl-N-(6-methyl-2-((4aS,5aR)-5a-methyl-1,4,4a,5,5a,6-hexahydrocyclopropa[f]indazol-3-yl)-1H-benzo[d]imidazol-5-yl)-2-morpholinopropanamide] | 11 nM
2 | CN(C(=O)CC1CCOCC1)c1ccc2[nH]c(-c3n[nH]c4c3C[C@@H]3C[C@]3(C)C4)nc2c1 [Example 10, N-methyl-N-(2-((4aS,5aR)-5a-methyl-1,4,4a,5,5a,6-hexahydrocyclopropa[f]indazol-3-yl)-1H-benzo[d]imidazol-5-yl)-2-(tetrahydro-2H-pyran-4-yl)acetamide] | 7 nM
3 | COc1cc2[nH]c(-c3n[nH]c4c3C[C@@H]3C[C@]3(C)C4)nc2cc1N(C)C(=O)[C@H](C)N1CCOCC1 [Example 19, (S)—N-(6-methoxy-2-((4aS,5aR)-5a-methyl-1,4,4a,5,5a,6-hexahydrocyclopropa[f]indazol-3-yl)-1H-benzo[d]imidazol-5-yl)-N-methyl-2-morpholinopropanamide] | 9 nM
4 | C[C@@H](C(=O)N(C)c1cc2nc(-c3n[nH]c4c3C[C@@H]3C[C@]3(C)C4)[nH]c2cc1Br)N1CCOCC1 [Example 20, (S)—N-(6-bromo-2-((4aS,5aR)-5a-methyl-1,4,4a,5,5a,6-hexahydrocyclopropa[f]indazol-3-yl)-1H-benzo[d]imidazol-5-yl)-N-methyl-2-morpholinopropanamide] | 5 nM
5 | C[C@@H](C(=O)N(C)c1cc2nc(-c3n[nH]c4c3C[C@@H]3C[C@]3(C)C4)[nH]c2cc1C#N)N1CCOCC1 [Example 21, (S)—N-(6-cyano-2-((4aS,5aR)-5a-methyl-1,4,4a,5,5a,6-hexahydrocyclopropa[f]indazol-3-yl)-1H-benzo[d]imidazol-5-yl)-N-methyl-2-morpholinopropanamide] | 9 nM
6 | C[C@@H](C(=O)N(C)c1cc2nc(-c3n[nH]c4c3C[C@@H]3C[C@]3(C)C4)[nH]c2c(F)c1F)N1CCOCC1 [Example 24, (S)—N-(6,7-difluoro-2-((4aS,5aR)-5a-methyl-1,4,4a,5,5a,6-hexahydrocyclopropa[f]indazol-3-yl)-1H-benzo[d]imidazol-5-yl)-N-methyl-2-morpholinopropanamide] | 8 nM
7 | CCN(C(=O)[C@H](C)N1CCOCC1)c1cc2nc(-c3n[nH]c4c3C[C@@H]3C[C@]3(C)C4)[nH]c2c(F)c1F [Example 25, (S)—N-(6,7-difluoro-2-((4aS,5aR)-5a-methyl-1,4,4a,5,5a,6-hexahydrocyclopropa[f]indazol-3-yl)-1H-benzo[d]imidazol-5-yl)-N-ethyl-2-morpholinopropanamide] | 13 nM
8 | Cc1cc2[nH]c(-c3n[nH]c4c3C[C@@H]3C[C@]3(C)C4)nc2cc1N(C)C(=O)CN1CCO[C@H](CO)C1 [Example 26, 2-((S)-2-(hydroxymethyl)morpholino)-N-methyl-N-(6-methyl-2-((4aS,5aR)-5a-methyl-1,4,4a,5,5a,6-hexahydrocyclopropa[f]indazol-3-yl)-1H-benzo[d]imidazol-5-yl)acetamide] | 12 nM
9 | Cc1cc2[nH]c(-c3n[nH]c4c3C[C@@H]3C[C@]3(C)C4)nc2cc1N(C)C(=O)CN1CCOC(CO)C1 (stereo partly drawn) [Example 27, 2-(2-(Hydroxymethyl)morpholino)-N-methyl-N-(6-methyl-2-((4aS,5aR)-5a-methyl-1,4,4a,5,5a,6-hexahydrocyclopropa[f]indazol-3-yl)-1H-benzo[d]imidazol-5-yl)acetamide] | 17 nM
10 | Cc1cc2[nH]c(-c3n[nH]c4c3C[C@@H]3C[C@]3(C)C4)nc2cc1N(C)C(=O)CN1CCO[C@@H](CO)C1 [Example 28, 2-((R)-2-(Hydroxymethyl)morpholino)-N-methyl-N-(6-methyl-2-((4aS,5aR)-5a-methyl-1,4,4a,5,5a,6-hexahydrocyclopropa[f]indazol-3-yl)-1H-benzo[d]imidazol-5-yl)acetamide] | 19 nM
11 | Cc1cc2[nH]c(-c3n[nH]c4c3C[C@@H]3C[C@]3(C)C4)nc2cc1N(C)C(=O)CN1CCOC(C)(C)C1 [Example 29, 2-(2,2-Dimethylmorpholino)-N-methyl-N-(6-methyl-2-((4aS,5aR)-5a-methyl-1,4,4a,5,5a,6-hexahydrocyclopropa[f]indazol-3-yl)-1H-benzo[d]imidazol-5-yl)acetamide] | 12 nM
12 | Cc1cc2[nH]c(-c3n[nH]c4c3C[C@@H]3C[C@]3(C)C4)nc2cc1N(C)C(=O)CN1CCO[C@H](C)C1 [Example 30, N-Methyl-N-(6-methyl-2-((4aS,5aR)-5a-methyl-1,4,4a,5,5a,6-hexahydrocyclopropa[f]indazol-3-yl)-1H-benzo[d]imidazol-5-yl)-2-((R)-2-methylmorpholino)acetamide] | 15 nM
13 | Cc1cc2[nH]c(-c3n[nH]c4c3C[C@@H]3C[C@]3(C)C4)nc2cc1N(C)C(=O)CN1CCO[C@@H](C)C1 [Example 31, N-Methyl-N-(6-methyl-2-((4aS,5aR)-5a-methyl-1,4,4a,5,5a,6-hexahydrocyclopropa[f]indazol-3-yl)-1H-benzo[d]imidazol-5-yl)-2-((S)-2-methylmorpholino)acetamide] | 13 nM

Now from value to compound:

Row | IC50 | SMILES
14 | 3 nM | Cc1cc2[nH]c(-c3n[nH]c4c3C[C@@H]3C[C@]3(C)C4)nc2cc1N(C)C(=O)[C@H](C)C1CCOCC1 [Example 4, (R)—N-methyl-N-(6-methyl-2-((4aS,5aR)-5a-methyl-1,4,4a,5,5a,6-hexahydrocyclopropa[f]indazol-3-yl)-1H-benzo[d]imidazol-5-yl)-2-(tetrahydro-2H-pyran-4-yl)propanamide]
15 | 5 nM | Cc1cc2[nH]c(-c3n[nH]c4c3C[C@@H]3C[C@]3(C)C4)nc2cc1N(C)C(=O)C(C)C1CCOCC1 (stereo partly drawn) [Example 5, N-methyl-N-(6-methyl-2-((4aS,5aR)-5a-methyl-1,4,4a,5,5a,6-hexahydrocyclopropa[f]indazol-3-yl)-1H-benzo[d]imidazol-5-yl)-2-(tetrahydro-2H-pyran-4-yl)propanamide]
16 | 3 nM | C[C@@H](C(=O)N(C)c1cc(F)c2[nH]c(-c3n[nH]c4c3C[C@@H]3C[C@]3(C)C4)nc2c1)C1CCOCC1 [Example 12, (R)—N-(7-fluoro-2-((4aS,5aR)-5a-methyl-1,4,4a,5,5a,6-hexahydrocyclopropa[f]indazol-3-yl)-1H-benzo[d]imidazol-5-yl)-N-methyl-2-(tetrahydro-2H-pyran-4-yl)propanamide]
17 | 1 nM | C[C@@H](C(=O)N(C)c1ccc2[nH]c(-c3n[nH]c4c3C[C@@H]3C(F)(F)[C@]3(C)C4)nc2c1)N1CCOCC1 [Example 13, (S)—N-(2-((4aS,5aR)-5,5-difluoro-5a-methyl-1,4,4a,5,5a,6-hexahydrocyclopropa[f]indazol-3-yl)-1H-benzo[d]imidazol-5-yl)-N-methyl-2-morpholinopropanamide]
18 | 3 nM | C[C@@H](C(=O)N(C)c1ccc2[nH]c(-c3n[nH]c4c3C[C@@H]3C[C@]3(C)C4)nc2c1)N1CCOCC1 [Example 14, (S)—N-methyl-N-(2-((4aS,5aR)-5a-methyl-1,4,4a,5,5a,6-hexahydrocyclopropa[f]indazol-3-yl)-1H-benzo[d]imidazol-5-yl)-2-morpholinopropanamide]
19 | 4 nM | C[C@@H](C(=O)N(C)c1cc(F)c2[nH]c(-c3n[nH]c4c3C[C@@H]3C[C@]3(C)C4)nc2c1)N1CCOCC1 [Example 15, (S)—N-(7-fluoro-2-((4aS,5aR)-5a-methyl-1,4,4a,5,5a,6-hexahydrocyclopropa[f]indazol-3-yl)-1H-benzo[d]imidazol-5-yl)-N-methyl-2-morpholinopropanamide]
20 | 5 nM | CCN(C(=O)[C@H](C)N1CCOCC1)c1cc(F)c2[nH]c(-c3n[nH]c4c3C[C@@H]3C[C@]3(C)C4)nc2c1 [Example 16, (S)—N-ethyl-N-(7-fluoro-2-((4aS,5aR)-5a-methyl-1,4,4a,5,5a,6-hexahydrocyclopropa[f]indazol-3-yl)-1H-benzo[d]imidazol-5-yl)-2-morpholinopropanamide]
21 | 5 nM | C[C@@H](C(=O)N(C)c1cc2nc(-c3n[nH]c4c3C[C@@H]3C[C@]3(C)C4)[nH]c2cc1F)N1CCOCC1 [Example 17, (S)—N-(6-fluoro-2-((4aS,5aR)-5a-methyl-1,4,4a,5,5a,6-hexahydrocyclopropa[f]indazol-3-yl)-1H-benzo[d]imidazol-5-yl)-N-methyl-2-morpholinopropanamide]
